# Measured values from EP4806898A1, “HETEROARYL DERIVATIVE COMPOUND AND USE THEREOF” (Voronoi Inc., priority 2023, dated 2025).
# Legend:
# [1] = test system: UWB1.289 cells; experiment: Cell proliferation inhibitory activity in BRCA1/2-mutant or HRD-positive cells (Cell Titer-Glo); format: cell-based; conditions: UWB1289; UWB1.289 cells, 144 hours after compound treatment, Cell Titer-Glo, 1.5 nM to 10 µM; read-out: GI50 UWB1.289 BRCA1 mut
# In short: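 UWB1.289 cells (1,000/well) in 50% MEBM/50% RPMI1640 exposed to […], final 1.5 nM to 10 µM, for 144 h at 37 °C. Viable cells measured by CellTiter-Glo luminescence; GI50 calculated.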
# [2] = target: T1, recombinant USP1 protein (Homo sapiens, UniProt O94782, DEL125-138/DEL229-408/DEL608-737); experiment: Binding affinity to recombinant USP1 protein by differential scanning fluorimetry; conditions: compound 100 µM; 0.03 mg/mL USP1 (Δ1-66, Δ125-138, Δ229-408, Δ608-737); Tm with compound minus Tm with DMSO; read-out: ΔTm (°C)
# T1 sequence (O94782 with tags, fused parts or gaps DEL125-138/DEL229-408/DEL608-737): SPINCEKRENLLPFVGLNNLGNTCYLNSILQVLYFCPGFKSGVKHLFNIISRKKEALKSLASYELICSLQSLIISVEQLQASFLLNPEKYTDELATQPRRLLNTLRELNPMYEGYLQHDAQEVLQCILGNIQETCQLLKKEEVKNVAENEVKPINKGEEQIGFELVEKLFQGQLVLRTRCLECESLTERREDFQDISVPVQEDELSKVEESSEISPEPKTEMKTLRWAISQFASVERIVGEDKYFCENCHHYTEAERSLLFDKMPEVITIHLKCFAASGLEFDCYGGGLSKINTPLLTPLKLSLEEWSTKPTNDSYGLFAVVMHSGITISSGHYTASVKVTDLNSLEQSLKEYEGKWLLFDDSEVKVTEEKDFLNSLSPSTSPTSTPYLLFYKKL
# In short: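 USP1 (Δ1-66, Δ125-138, Δ229-408, Δ608-737) at 0.03 mg/mL with dye in 50 mM Tris-HCl pH 8.0, 150 mM NaCl, 2% glycerol, 1 mM DTT; compounds at 100 µM final. Tm read on real-time PCR instrument; ΔTm = Tm with compound minus Tm with DMSO.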
SMILES,GI50 [1],ΔTm at 100 µM [2]
"CNCCNC(=O)c1cc2cnc(-c3c(OC)ncnc3C3CC3)nc2n1Cc1ccc(-c2nc(C(F)(F)F)cn2C(C)C)cc1 [Example 143, 2-(4-cyclopropyl-6-methoxypyrimidin-5-yl)-7-(4-(1-isopropyl-4-(trifluoromethyl)-1H-imidazol-2-yl)benzyl) -N-(2-(methylamino)ethyl)-7H-pyrrolo[2,3-d]pyrimidine-6-carboxamide]",100 to 500 nM,> 5 °C
"CNC1CN(C(=O)c2cc3cnc(-c4c(OC)ncnc4C4CC4)nc3n2Cc2ccc(-c3nc(C(F)(F)F)cn3C(C)C)cc2)C1 [Example 144, (2-(4-cyclopropyl-6-methoxypyrimid in-5-yl)-7-(4-(1-isopropyl-4-(trifluoromethyl)-1H-imidazol-2-yl)benzyl) -7H-pyrrolo[2,3-d]pyrimidin-6-yl) (3-(methylamino)azetidin-1-yl)methanone]",< 100 nM,> 5 °C
"CNC(=O)c1cc2cnc(-c3c(OC)ncnc3C3CC3)nc2n1Cc1ccc(-c2nc(C(F)(F)F)cn2C2CC2)cc1 [Example 145, 7-(4-(1-cyclopropyl-4-(trifluoromethyl) -1H-imidazol-2-yl)benzyl)-2-(4-cyclopropyl-6-methoxypyrimidin-5-yl)-N-methyl-7H-pyrrolo[2,3-d]pyrimidine-6-carboxamide]",100 to 500 nM,> 5 °C
"CNC(=O)c1cc2cnc(-c3c(OC)ncnc3C3CC3)nc2n1Cc1ccc(-c2nc(C(F)(F)F)cn2C(C)C)c(F)c1 [Example 146, 2-(4-cyclopropyl-6-methoxypyrimidin-5-yl)-7-(3-fluoro-4-(1-isopropyl-4-(trifluoromethyl)-1H-imidazol-2-yl)benzyl)-N-methyl-7H-pyrrolo[2,3-d]pyrimidine-6-carboxamide]",< 100 nM,> 5 °C
"CNC(=O)c1cc2cnc(-c3cccnc3OC)nc2n1Cc1ccc(-c2nc(C(F)(F)F)cn2C(C)C)cc1 [Example 147, 7-(4-(1-isopropyl-4-(trifluoromethyl)-1H-imidazol-2-yl)benzyl)-2-(2-methoxypyridin-3-yl)-N-methyl-7H-pyrrolo[2,3-d]pyrimidine-6-carboxamide]",< 100 nM,> 5 °C
"COc1ncnc(C2CC2)c1-c1ncc2cc(C(=O)NCCN3CCC3)n(Cc3ccc(-c4nc(C(F)(F)F)cn4C(C)C)cc3)c2n1 [Example 149, N-(2-(azetidin-1-yl)ethyl)-2-(4-cyclopropyl-6-methoxypyrimidin-5-yl)-7-(4-(1-isopropyl-4-(trifluoromethyl)-1H-imidazol-2-yl)benzyl)-7H-pyrrolo[2,3-d]pyrimidine-6-carboxamide]",< 100 nM,> 5 °C
"COc1ncnc(C2CC2)c1-c1ncc2cc(C(=O)NC3CC3)n(Cc3ccc(-c4nc(C(F)(F)F)cn4C)cc3)c2n1 [Example 150, N-cyclopropyl-2-(4-cyclopropyl-6-methoxypyrimidin-5-yl)-7-(4-(1-methyl-4-(trifluoromethyl)-1H-imidazol-2-yl)benzyl)-7H-pyrrolo[2,3-d]pyrimidine-6-carboxamide]",< 100 nM,> 5 °C
"COc1ncnc(C2CC2)c1-c1ncc2cc(C(=O)N[C@H](C)CO)n(Cc3ccc(-c4nc(C(F)(F)F)cn4C)cc3)c2n1 [Example 151, (R) -2-(4-cyclopropyl-6-methoxypyrimidin-5-yl)-N-(1-hydroxypropan-2-yl)-7-(4-(1-methyl-4-(trifluoromethyl)-1H-imidazol-2-yl)benzyl)-7H-pyrrolo[2,3-d]pyrimidine-6-carboxamide]",< 100 nM,> 5 °C
"COc1ncnc(C2CC2)c1-c1ncc2cc(C(=O)NC[C@H](O)CO)n(Cc3ccc(-c4nc(C(F)(F)F)cn4C)cc3)c2n1 [Example 152, (S)-2-(4-cyclopropyl-6-methoxypyrimidin-5-yl)-N-(2,3-dihydroxypropy 1)-7-(4-(1-methyl-4-(trifluoromethyl)-1H-imidazol-2-yl)benzyl)-7H-pyrrolo[2,3-d]pyrimidine-6-carboxamide]",100 to 500 nM,> 5 °C
"COc1ncnc(C2CC2)c1-c1ncc2cc(C(=O)NC3CCN(C)CC3)n(Cc3ccc(-c4nc(C(F)(F)F)cn4C)cc3)c2n1 [Example 153, 2-(4-cyclopropyl-6-methoxypyrimidin-5-yl)-7-(4-(1-methyl-4-(trifluoromethyl)-1H-imidazol-2-yl)benzyl)-N-(1-methylpiperidin-4-yl)-7H-pyrrolo[2,3-d]pyrimidine-6-carboxamide]",< 100 nM,> 5 °C
"CNC(=O)c1cc2cnc(-c3c(OC)ncnc3C3CC3)cc2n1Cc1ccc(-c2nc(C(F)(F)F)cn2C(C)C)cc1 [Example 154, 6-(4-cyclopropyl-6-methoxypyrimidin-5-yl)-1-(4-(1-isopropyl-4-(trifluoromethyl)-1H-imidazol-2-yl)benzyl)-N-methyl-1H-pyrrolo[3,2-c]pyridine-2-carboxamide]",< 100 nM,> 5 °C
"COc1ncnc(C2CC2)c1-c1ncc2cc(C(=O)N[C@H](CO)C(C)C)n(Cc3ccc(-c4nc(C(F)(F)F)cn4C(C)C)cc3)c2n1 [Example 155, (S)-2-(4-cyclopropyl-6-methoxypyrimidin-5-yl)-N-(1-hydroxy-3-methylbutan-2-yl)-7-(4-(1-isopropyl-4-(trifluoromethyl)-1H-imidazol-2-yl)benzyl)-7H-pyrrolo[2,3-d]pyrimidine-6-carboxamide]",< 100 nM,> 5 °C
"COc1ncnc(C2CC2)c1-c1ncc2cc(C(=O)NC(C)(C)CO)n(Cc3ccc(-c4nc(C(F)(F)F)cn4C(C)C)cc3)c2n1 [Example 156, 2-(4-cyclopropyl-6-methoxypyrimidin-5-yl)-N-(1-hydroxy-2-methylpropan-2-yl)-7-(4-(1-isopropyl-4-(trifluoromethyl)-1H-imidazol-2-yl)benzyl)-7H-pyrrolo[2,3-d]pyrimidine-6-carboxamide]",< 100 nM,> 5 °C
"COc1ncnc(C2CC2)c1-c1ncc2cc(C(=O)NCCO)n(Cc3ccc(-c4nc(C(F)(F)F)cn4C(C)C)cc3)c2n1 [Example 157, 2-(4-cyclopropyl-6-methoxypyrimidin-5-yl)-N-(2-hydroxyethyl)-7-(4-(1-isopropyl-4-(trifluoromethyl)-1H-imidazol-2-yl)benzyl)-7H-pyrrolo[2,3-d]pyrimidine-6-carboxamide]",< 100 nM,> 5 °C
"COc1ncnc(C2CC2)c1-c1ncc2cc(C(=O)NC3CCC(N(C)C)CC3)n(Cc3ccc(-c4nc(C(F)(F)F)cn4C(C)C)cc3)c2n1 (centres unmarked) [Example 158, 2-(4-cyclopropyl-6-methoxypyrimidin-5-yl)-N-(4-(dimethylamino)cyclohexyl)-7-(4-(1-isopropyl-4-(trifluoromethyl)-1H-imidazol-2-yl)benzyl)-7H-pyrrolo[2,3-d]pyrimidine-6-carboxamide]",< 100 nM,> 5 °C
"COc1ncnc(C2CC2)c1-c1ncc2cc(C(=O)N[C@@H]3CCN(C)C[C@@H]3F)n(Cc3ccc(-c4nc(C(F)(F)F)cn4C)cc3)c2n1 [Example 161, 2-(4-cyclopropyl-6-methoxypyrimidin-5-yl)-N-((3S,4R)-3-fluoro-1-methylpiperidin-4-yl)-7-(4-(1-methyl-4-(trifluoromethyl)-1H-imidazol-2-yl)benzyl)-7H-pyrrolo[2,3-d]pyrimidine-6-carboxamide]",< 100 nM,> 5 °C
"COc1ncnc(C2CC2)c1-c1ncc2cc(C(=O)N[C@H]3CCN(C)C[C@H]3F)n(Cc3ccc(-c4nc(C(F)(F)F)cn4C)cc3)c2n1 [Example 162, 2-(4-cyclopropyl-6-methoxypyrimidin-5-yl)-N-((3R, 4S) -3-fluoro-1-methylpiperidin-4-yl)-7-(4-(1-methyl-4-(trifluoromethyl)-1H-imidazol-2-yl)benzyl)-7H-pyrrolo[2,3-d]pyrimidine-6-carboxamide]",< 100 nM,> 5 °C
"COc1ncnc(C2CC2)c1-c1ncc2cc(C(=O)NC[C@@H](C)O)n(Cc3ccc(-c4nc(C(F)(F)F)cn4C)cc3)c2n1 [Example 163, (R)-2-(4-cyclopropyl-6-methoxypyrimidin-5-yl)-N-(2-hydroxypropyl) -7-(4-(1-methyl-4-(trifluoromethyl)-1H-imidazol-2-yl)benzyl)-7H-pyrrolo[2,3-d]pyrimidine-6-carboxamide]",< 100 nM,> 5 °C
"COc1ncnc(C2CC2)c1-c1ncc2cc(C(=O)NC[C@H](C)O)n(Cc3ccc(-c4nc(C(F)(F)F)cn4C)cc3)c2n1 [Example 164, (S)-2-(4-cyclopropyl-6-methoxypyrimidin-5-yl)-N-(2-hydroxypropyl) -7-(4-(1-methyl-4-(trifluoromethyl)-1H-imidazol-2-yl)benzyl)-7H-pyrrolo[2,3-d]pyrimidine-6-carboxamide]",< 100 nM,> 5 °C
